Test results as given in patent US8633166B2, “Methicillin-resistant Staphylococcus aureus active metabolites” (priority 2009, dated 2014).
In brackets after ≈: the same amount, converted by molar mass. Each block holds one compound with its values, some of them ahead of it.

Key:
[1] = system: Methicillin-resistant Staphylococcus aureus; test: In vivo MRSA assay, thigh infection in a murine model; set-up: species or system Mice (CD-1); details: vancomycin treated animals
Description: The in vivo antimicrobial activity for the isolated glycosides is represented in FIGS. 2A and 2B. Mice (CD-1) were purchased from Harlan Inc. and acclimatized up to 5 days before use. Food and water were available ad libitum throughout the study. They were rendered neutropenic by two injections of cyclophosphamide (100 mg/kg) given intraperitoneally, one and four days before infection. A volume of 50 uL suspension of Methicillin-resistant Staphylococcus aureus (1.5×10^6 live organisms) was injected intramuscularly (1M) into each of the two rear thighs. Each thigh was considered as an individual data point (total of 4 data points for each treatment). These mice were randomly distributed into the control or treatment groups (n=2/group).
Treatment with the test compound (1) was initiated via the intraperitoneal route 2 hrs after thigh inoculation. Control animals were concurrently administered saline (mock treatment) or vancomycin in the same volume as those receiving compound (1). All animals were sacrificed after 48 hours by CO2 inhalation. Immediately following sacrifice, thigh tissue was collected from the animals, weighed, and homogenized in 5.0 mL of saline. Thigh muscle homogenate was then processed for microbiological assay to determine the number of MRSA cfu per gram of muscle tissue.

[2] = system: MRSA; details: background statement; cited from earlier work
[3] = system: methicillin resistant Staphylococcus aureus (MRSA); test: In vitro antimicrobial evaluation, modified CLSI (formerly NCCLS) method; type: cell-based; details: IC50 from percent growth versus test concentration; values only in FIG. 1
Description: The in vitro antimicrobial activity for the isolated glycosides is represented in FIG. 1. A modified version of CLSI (formerly NCCLS) method was used for the in vitro evaluation of test samples. Duplicate samples were transferred to 96-well microplates after diluting with 0.9% saline. The microbial cell suspensions were to give the desired target inocula after addition to the samples. Media and solvent controls were included in each assay. The IC50 was calculated by plotting percent growth versus test concentration.

[4] = system: Enterococcus faecalis; test: In vitro MIC, broth microdilution (CLSI); type: cell-based
Description: (§1) All test articles were dissolved in DMSO. Stock solutions were prepared at 40-fold the highest concentration in the test plate. The final concentration of DMSO in the test system was 2.5%.
(§2) The medium employed for the MIC assay was Mueller Hinton II Broth (MHB II-Becton Dickinson, #212322, Lot #9044411) for most of the organisms. MHB II was supplemented with 2% lysed horse blood (Cleveland Scientific Lot #22299-1) to accommodate the growth of Streptococcus pneumoniae, Streptococcus pyogenes and Streptococcus agalactiae. The media were prepared at 102.5% the normal weight to offset the dilution created by the addition of 5 μL drug solution to each well of the microdilution panels.
(§3) The MIC assay method followed the procedure described by the Clinical and Laboratory Standards Institute (see Clinical and Laboratory Standards Institute. Methods for Dilution Antimicrobial, Susceptibility Tests for Bacteria That Grow Aerobically; Approved Standard—Eighth Edition. CLSI document M07-A8 [ISBN 1-56238-689-1]. Clinical and Laboratory, Standards Institute, 940 West Valley Road, Suite 1400, Wayne, Pa. 19087-1898 USA, 2009) and employed automated liquid handlers to conduct serial dilutions and liquid transfers. Automated liquid handlers included the Multidrop 384 (Labsystems, Helsinki, Finland), Biomek 2000 and Multimek 96 (Beckman Coulter, Fullerton Calif.).
(§4) The wells of Columns 2-12 of standard 96-well microdilution plates (Falcon 3918) were filled with 150 μL of DMSO on the Multidrop 384. The drugs (300 μL) were dispensed into Column 1 of the appropriate row in these plates. These would become the mother plates from which the test plates (daughter plates) were prepared. The Biomek 2000 completed serial transfers through Column 11 in the mother plates. The wells of Column 12 contained no drug and were the organism growth control wells in the daughter plates. The daughter plates were loaded with 185 μL of the appropriate test media (described above) using the Multidrop 384. The daughter plates were prepared on the Multimek 96 instrument which transferred 5 μL of drug solution from each well of a mother plate to each corresponding well of each daughter plate in a single step. Therefore, the test agents were maintained in solution in 100% DMSO up until the point of being added to the final test medium.
(§5) Standardized inoculum of each organism was prepared per CLSI methods (See Clinical and Laboratory Standards Institute. Performance Standards for Antimicrobial Susceptibility Testing; Nineteenth Informational Supplement. CLSI document M100-S19 [ISBN 1-56238-690-5]. Clinical and Laboratory Standards Institute, 940 West Valley Road, Suite 1400, Wayne, Pa. 19087-1898 USA, 2009.). Suspensions were prepared in MHB to equal the turbidity of a 0.5 McFarland standard. The suspensions were diluted 1:9 in broth appropriate to the organism. The inoculum for each organism was dispensed into sterile reservoirs divided by width (Beckman Coulter), and the Biomek 2000 was used to inoculate the plates. Daughter plates were placed on the Biomek 2000 work surface reversed so that inoculation took place from low to high drug concentration. The Biomek 2000 delivered 10 μL of standardized inoculum into each well. This yielded a final cell concentration in the daughter plates of approximately 5×10^5 colony-forming-units/mL. Thus, the wells of the daughter plates ultimately contained 185 μL of broth, 5 μL of drug solution, and 10 μL of bacterial inoculum. The final concentration of DMSO in the assay plate was 2.5%.
(§6) Plates were stacked 3 high, covered with a lid on the top plate, placed in plastic bags, and incubated at 35° C. for approximately 18 hours for most of the isolates. The Streptococcus plates were read after 20 hours of incubation. The microplates were viewed from the bottom using a plate viewer. […] The MIC was read and recorded as the lowest concentration of drug that inhibited visible growth of the organism.

[5] = system: Enterococcus faecium; test: In vitro MIC, broth microdilution (CLSI); type: cell-based
Description: as §1, §2, §3, §4, §5, §6

[6] = system: Staphylococcus aureus; test: In vitro MIC, broth microdilution (CLSI); type: cell-based
Description: as §1, §2, §3, §4, §5, §6

[7] = system: Staphylococcus epidermidis; test: In vitro MIC, broth microdilution (CLSI); type: cell-based
Description: as §1, §2, §3, §4, §5, §6

[8] = system: Streptococcus agalactiae; test: In vitro MIC, broth microdilution (CLSI); type: cell-based; details: MHB II with 2% lysed horse blood
Description: as §1, §2, §3, §4, §5, §6

[9] = system: Streptococcus pneumoniae; test: In vitro MIC, broth microdilution (CLSI); type: cell-based; details: MHB II with 2% lysed horse blood
Description: as §1, §2, §3, §4, §5, §6

[10] = system: Streptococcus pyogenes; test: In vitro MIC, broth microdilution (CLSI); type: cell-based; details: MHB II with 2% lysed horse blood
Description: as §1, §2, §3, §4, §5, §6

[11] = system: enterococci; test: In vitro MIC, for enterococci; type: cell-based; details: E. faecalis and E. faecium, vancomycin-susceptible and vancomycin-resistant strains
Description: as §1
as §2, with “panels. […]” for “panels.”
as §6, with “incubation.” for “incubation. The microplates were viewed from the bottom using a plate viewer.”

[12] = system: streptococci; test: In vitro MIC, streptococci; type: cell-based, Streptococcus; details: highest concentrations considered for MIC readings
Description: as §1
as §2, with “panels. […]” for “panels.”
as §6, with “incubation.” for “incubation. The microplates were viewed from the bottom using a plate viewer.”

SMILES: CN[C@H](CC(C)C)C(=O)N[C@H]1C(=O)N[C@@H](CC(N)=O)C(=O)N[C@H]2C(=O)N[C@H]3C(=O)N[C@H](C(=O)N[C@H](C(=O)O)c4cc(O)cc(O)c4-c4cc3ccc4O)[C@H](O)c3ccc(c(Cl)c3)Oc3cc2cc(c3O[C@@H]2O[C@H](CO)[C@@H](O)[C@H](O)[C@H]2O[C@H]2C[C@](C)(N)[C@H](O)[C@H](C)O2)Oc2ccc(cc2Cl)[C@H]1O [Vancomycin, reference compound]
- reduction compared to vehicle control [1]: 72%
- number of MRSA isolated from muscle tissue ([1]; intraperitoneal, 48 hours, neutropenic mice): 2.2×10^7 g of tissue
- success rate [2]: 35-57%

- MIC ([4]; MMX 101, CLSI QC, ATCC 29212): 8 µg/mL (≈ 11 µM)
- MIC ([4]; MMX 742, VSE, CHP): >8 µg/mL
- MIC ([4]; MMX 3199, VSE, UCLA): >8 µg/mL
- MIC ([4]; MMX 3821, VRE, Mt. Sinai): 8 µg/mL (≈ 11 µM)
- MIC ([4]; MMX 3896, VSE, Mt. Sinai): >8 µg/mL
- MIC ([4]; MMX 4131, VRE, CHP): 4 µg/mL (≈ 5.52 µM)
- MIC ([4]; MMX 4160, VRE, UCLA): 8 µg/mL (≈ 11 µM)
- MIC ([5]; MMX 0799, VSE, CHP): >8 µg/mL
- MIC ([5]; MMX 0845, VSE, UCLA): 4 µg/mL (≈ 5.52 µM)
- MIC ([5]; MMX 1238, VRE, Mt. Sinai): 4 µg/mL (≈ 5.52 µM)
- MIC ([5]; MMX 1259, VSE, Mt. Sinai): >8 µg/mL
- MIC ([5]; MMX 4024, VRE, CHP): >8 µg/mL
- MIC ([5]; MMX 4048, VRE, UCLA): >8 µg/mL
- MIC ([6]; MMX 100, CLSI QC, ATCC 29213): >8 µg/mL
- MIC ([6]; MMX 753, MSSA, CHP): >8 µg/mL
- MIC ([6]; MMX 758, MRSA, CHP): >8 µg/mL
- MIC ([6]; MMX 2055, MRSA, UCLA): >8 µg/mL
- MIC ([6]; MMX 2063, MSSA, UCLA): >8 µg/mL
- MIC ([6]; MMX 3856, MSSA, Mt. Sinai): >8 µg/mL
- MIC ([6]; MMX 3894, MRSA, Mt. Sinai): >8 µg/mL
- MIC ([7]; MMX 762, MRSE, CHP): >8 µg/mL
- MIC ([7]; MMX 826, MRSE, UCLA): >8 µg/mL
- MIC ([7]; MMX 835, MSSE, UCLA): 8 µg/mL (≈ 11 µM)
- MIC ([7]; MMX 3703, MSSE, CHP): 8 µg/mL (≈ 11 µM)
- MIC ([7]; MMX 3752, MRSE, Mt. Sinai): >8 µg/mL
- MIC ([7]; MMX 3763, MSSE, Mt. Sinai): 8 µg/mL (≈ 11 µM)
- MIC ([8]; MMX 3743, Mt. Sinai): >32 µg/mL
- MIC ([8]; MMX 4093, UCLA): >32 µg/mL
- MIC ([8]; MMX 4106, CHP): >32 µg/mL
- MIC ([9]; MMX 748, PRSP, CHP): >32 µg/mL
- MIC ([9]; MMX 866, PSSP, CHP): >32 µg/mL
- MIC ([9]; MMX 1195, CLSI QC, ATCC 49619): >32 µg/mL
- MIC ([9]; MMX 3130, PSSP, UCLA): >32 µg/mL
- MIC ([9]; MMX 3160, PRSP, UCLA): >32 µg/mL
- MIC ([9]; MMX 3937, PSSP, Mt. Sinai): >32 µg/mL
- MIC ([9]; MMX 3953, PRSP, Mt. Sinai): >32 µg/mL
- MIC ([10]; MMX 718, CHP): >32 µg/mL
- MIC ([10]; MMX 2572, UCLA): >32 µg/mL
- MIC ([10]; MMX 3928, Mt. Sinai): >32 µg/mL
SMILES: C[C@@H]1O[C@@H](Oc2c(-c3ccc(O)cc3)oc3cc(O)cc(O)c3c2=O)[C@H](OC(=O)/C=C\c2ccc(O)cc2)[C@H](OC(=O)/C=C\c2ccc(O)cc2)[C@H]1O [Compound 4, kaempferol 3-O-α-L-(2″,3″-di-Z-p-coumaroyl)rhamnoside]
- in vitro activity (rank among the four compounds) [3]: most potent in vitro activity
- activity against enterococci [11]: inhibited multiple strains
- activity against the streptococci [12]: Neither compound was active
